Patent US4652568A, “Theophylline-7-acetic acid ester of d,l-trans-sobrerol having mucosecretolytic-fluidizing and antibronchospastic activity, a process for its preparation and pharmaceutical compositions thereof” (priority 1984, dated 1987)

Key:
[1] = test system: bronchospasm induced by hystamine; assay: Antibronchospastic activity in the guinea-pig, method of Konzett and Rossler; assay type: in vivo; conditions: drug i.v., inhibition of bronchospasm by hystamine (6 to 20 mg/kg i.v.), relative to theophylline, taken equal to 100
Protocol: Spotted female guinea-pigs, with a body weight of 300-500 g., are used.
As a spasmogenous agent, hystamine (6 to 20 mg/kg i.v.) is used. The activity is defined as percent inhibition of the bronchospasm induced by hystamine in the presence of the drug (i.v. administered), compared to the one of hystamine alone in the presence of the solvent.
The drugs are dissolved into 2% dimethylformamide in physiological solution (solvent).

[2] = test system: bronchial mucus of bronchitic rabbits; assay: Fluidizing "in vivo" activity: viscosity of the bronchial mucus of bronchitic rabbits; design: species or system rabbit; conditions: for Fluidizing "in vivo" activity of bronchial mucus: bronchitic rabbits, oral, relative to d,l-trans-sobrerol taken equal to 100
Protocol: Method for studying viscosity of the bronchial mucus of a bronchitic rabbit.
Viscosity of the mucus as withdrawn is studied by using a Contraves RM16 microviscosimeter and it is recorded by a Rheomat 15T-FC apparatus.

[3] = test system: mucoproduction (bronchial secretion); assay: Bronchosecretagogue activity: mucoproduction in the rabbit according to Scuri; assay type: in vivo; conditions: for Bronchosecretagogue activity: rabbit, oral, percent increase of mucoproduction II vs I period, relative to d,l-trans-sobrerol, taken equal to 100
Protocol: Method of mucoproduction in the rabbit according to Scuri R. et al, Boll. Chim. Farm.
Male brown rabbits weighing 2.8-3.5 kg are used. To said animals, by a surgical operation under anaesthesia, a T shaped tracheal cannula is applied, as described in the above mentioned bibliographic reference.
To the cannula, a container (a polypropylene 2 ml test tube) is applied for periodical collection of the bronchial secretion.
The study of mucoproduction, started at the fourth day after the operation, is divided into two 4 hour periods for collecting and measuring the mucus, and precisely from 8:30 to 12:30 (I) and from 12:30 to 16:30 (II).
The activity of each drug is tested by administering the same by oesophageal way (os) at the begining of the II period and by evaluating the percent increase of mucoproduction (weight of the mucus as collected) over the II period as compared to the I period.

[4] = Pharmacocinetics: plasma levels (HPLC) and presence in tracheo-bronchial excretion and pulmonary tissue; assay type: in vivo, Wistar rats; conditions: rat, 300 mg/kg oral
Protocol: Two groups of Wistar rats (165.div.250 g) are utilized. Before treatment, the animals were fasting for about 15 hours and were allowed to drink a 10% glucose solution ad libitum.
To the first group, the compound of formula (I) of this invention, orally (transoesophageal intubation) at the dose of 300 mg/kg is administered (a single administration) and at 0.5 h; 1 h; 1.5 h; 2 h; 3 h; 4 h; and 6 h from administration 5 rats/time are sacrificed. The blood, as collected into test tubes containing sodium heparin is centrifuged, and the plasma so obtained is utilized for quantitative analysis of the product, by means of high pressure liquid chromatography (HPLC) with an U.V. detector. To the second group, the compound of formula (I) of this invention at the dose of 300 mg/kg orally is administered (a single administration), and at 1 h and 2 h from administration, 5 rats/time are sacrificed (by bleeding). To each rat, trachea, bronchia and lungs are withdrawn. From trachea and bronchia, by means of two washings with a 0.5 ml syringe containing physiological solution, introduced into the trachea, the tracheo-bronchialexcretion is recovered, which is utilized to evaluate quantitatively the presence of the compound of formula (I) of the present invention. The pulmonary tissue, to which a KCl solution has been added, is homogenized by an ultra Turrax apparatus and utilized for the quantitative testing of the presence of the compound of formula (I) of this invention. […] In relation to the activity shown on by the compound of the invention as a mucosecretolytic-fluidizing-anti-bronchospastic agent, the present invention further provides pharmaceutical compositions containing the compound of formula (I) of this invention in dosage units.

[5] = Acute toxicity: LD50 in the mouse after a single oral administration; conditions: in vivo, mortality at 14th day, Litchfield and Wilcoxon
Protocol: Method for studying LD50 in the mouse after a single oral administration.
Groups of 10 Swiss albine, female, adult mice (20-22 g), fasting from the evening preceding the test, are treated orally with various doses (4 to 5) of the test drugs, dissolved/suspended in 1% hydroxycellulose (volume administered 20 ml/kg). Thereafter, the animals are fed again (Morini MIL fodder for mice).
The 50% lethal dose (LD50) is calculated by the method of Litchfield J. T. and Wilcoxon F. (J. Pharmacol. 96, 99-113, 1949) by utilizing the mortality data as obtained at the 14th day after the drug treatment.

| SMILES | Antibronchospastic activity [1] | Fluidizing "in vivo" activity of bronchial mucus [2] | fluidizing activity compared with d,l-trans-sobrerol, in words ([2]; summary statement) | Bronchosecretagogue activity [3] | mucosecretolytic activity compared with d,l-trans-sobrerol, in words ([3]; summary statement) | presence at the level of tracheo-bronchial mucus ([4]; 1 h and 2 h) | presence in the pulmonary parenchyma ([4]; 1 h and 2 h) | absorption (course of the plasmatic levels) ([4]; single administration, plasma 0.5 to 6 h) | LD50 at 336 h [5] [mg/kg] |
| --- | --- | --- | --- | --- | --- | --- | --- | --- | --- |
| CC1=CC[C@H](C(C)(C)O)C[C@H]1OC(=O)Cn1cnc2c1c(=O)n(C)c(=O)n2C (relative stereo) [CO/1488, 5-hydroxy-α,α-4-trimethyl-3-cyclohexene-1-methanol-5-[2[7[1,2,3,6-tetrahydro-1,3-dimethyl-2,6-dioxopurinyl]]]acetate] | 143 | 110 | slight potency increase | 128 | slight potency increase | found also at the level of tracheo-bronchial mucus | in the pulmonary parenchyma | quick and good absorption | 1900 |
| CC1=CC[C@H](C(C)(C)O)C[C@H]1O (relative stereo) [d,l-trans-sobrerol] | 0 | 100 |  | 100 |  |  |  |  |  |
| Cn1c(=O)c2[nH]cnc2n(C)c1=O [theophylline] | 100 | 0 |  | 0 |  |  |  |  |  |
